Columns and labels:
[1] = molecular target: T1, 11-beta-hydroxysteroid dehydrogenase 1 (Homo sapiens, UniProt P28845); experiment: Inhibition of human 11beta-HSD1 expressed in HEK293 cells by FPIA; type: cell-based
[2] = molecular target: T2, 11-beta-hydroxysteroid dehydrogenase type 2 (Homo sapiens, UniProt P80365); experiment: Inhibitory activity against human 11beta-HSD2 by SPA
T2 sequence (P80365 whole entry): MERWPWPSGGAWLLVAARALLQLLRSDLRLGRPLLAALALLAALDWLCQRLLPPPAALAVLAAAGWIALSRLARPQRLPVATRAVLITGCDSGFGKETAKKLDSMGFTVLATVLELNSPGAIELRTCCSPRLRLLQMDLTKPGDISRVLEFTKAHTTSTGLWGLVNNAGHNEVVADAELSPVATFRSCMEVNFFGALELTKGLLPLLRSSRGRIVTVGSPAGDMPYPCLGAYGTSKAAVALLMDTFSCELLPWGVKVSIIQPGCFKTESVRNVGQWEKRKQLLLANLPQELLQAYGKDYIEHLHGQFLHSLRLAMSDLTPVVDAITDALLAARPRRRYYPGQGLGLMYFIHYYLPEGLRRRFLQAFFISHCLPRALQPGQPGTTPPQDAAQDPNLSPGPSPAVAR

[3] = molecular target: T3, 11-beta-hydroxysteroid dehydrogenase type 2 (Mus musculus, UniProt P51661); experiment: Inhibitory activity against mouse 11beta-HSD2 by SPA
T3 sequence (P51661 whole entry): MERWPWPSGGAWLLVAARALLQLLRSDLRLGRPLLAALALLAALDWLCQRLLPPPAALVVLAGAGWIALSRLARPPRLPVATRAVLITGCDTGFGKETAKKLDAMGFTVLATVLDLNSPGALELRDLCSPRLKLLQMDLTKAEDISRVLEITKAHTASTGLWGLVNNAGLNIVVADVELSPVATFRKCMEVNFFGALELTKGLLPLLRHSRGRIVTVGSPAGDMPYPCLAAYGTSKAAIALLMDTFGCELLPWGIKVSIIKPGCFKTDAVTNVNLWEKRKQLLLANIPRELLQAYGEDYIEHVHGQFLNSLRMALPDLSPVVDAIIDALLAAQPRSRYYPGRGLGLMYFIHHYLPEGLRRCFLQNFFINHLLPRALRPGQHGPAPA

[4] = molecular target: 11-beta-hydroxysteroid dehydrogenase 1 (Mus musculus, UniProt P50172); experiment: Inhibition of mouse 11beta-HSD1 expressed in Escherichia coli by SPA
[5] = Intrinsic clearance in human liver microsomes at 1 uM; type: ADME, Microsome
[6] = molecular target: T1, 11-beta-hydroxysteroid dehydrogenase 1; experiment: Inhibition of human 11beta-HSD1 expressed in Escherichia coli by SPA
[7] = Intrinsic clearance in mouse liver microsomes at 1 uM; type: ADME, Microsome
[8] = Volume of distribution in mouse at 10 mg/kg, iv; type: ADME, organism-based; set-up: dose 10 mg/kg, route intravenous; settings: in vivo, read-out: Vdss
[9] = Half life in mouse at 10 mg/kg, iv; type: ADME, organism-based; set-up: dose 10 mg/kg, route intravenous; settings: in vivo
[10] = Plasma clearance in mouse at 10 mg/kg, iv; type: ADME, organism-based; set-up: dose 10 mg/kg, route intravenous
Mus musculus = experiment: AUC in mouse at 10 mg/kg, po; type: ADME, organism-based, Plasma; set-up: dose 10 mg/kg, route oral; settings: in vivo
[11] = Intrinsic clearance in rat liver microsomes at 1 uM; type: ADME, Microsome
[12] = molecular target: 11-beta-hydroxysteroid dehydrogenase 1 (Rattus norvegicus, UniProt P16232); experiment: Inhibitory activity against rat 11beta-HSD1
[13] = Oral bioavailability in mouse at 10 mg/kg, po; type: ADME, organism-based; settings: in vivo
[14] = Half life in mouse at 10 mg/kg, po; type: ADME, organism-based; set-up: dose 10 mg/kg, route oral; settings: in vivo
[15] = molecular target: T4, 11-beta-hydroxysteroid dehydrogenase type 2 (Rattus norvegicus, UniProt P50233); experiment: Inhibitory activity against rat 11beta-HSD2
T4 sequence (P50233 whole entry): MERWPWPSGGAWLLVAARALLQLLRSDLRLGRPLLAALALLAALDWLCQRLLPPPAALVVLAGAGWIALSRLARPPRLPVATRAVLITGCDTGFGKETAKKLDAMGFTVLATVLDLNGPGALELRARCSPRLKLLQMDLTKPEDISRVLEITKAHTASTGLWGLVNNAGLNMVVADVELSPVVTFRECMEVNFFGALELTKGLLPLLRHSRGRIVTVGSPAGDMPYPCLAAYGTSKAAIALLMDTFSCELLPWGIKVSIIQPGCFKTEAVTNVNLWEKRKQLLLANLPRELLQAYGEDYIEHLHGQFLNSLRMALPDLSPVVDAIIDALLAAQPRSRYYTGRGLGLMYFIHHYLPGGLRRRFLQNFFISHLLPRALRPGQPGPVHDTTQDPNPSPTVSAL

T1 sequence (P28845 whole entry): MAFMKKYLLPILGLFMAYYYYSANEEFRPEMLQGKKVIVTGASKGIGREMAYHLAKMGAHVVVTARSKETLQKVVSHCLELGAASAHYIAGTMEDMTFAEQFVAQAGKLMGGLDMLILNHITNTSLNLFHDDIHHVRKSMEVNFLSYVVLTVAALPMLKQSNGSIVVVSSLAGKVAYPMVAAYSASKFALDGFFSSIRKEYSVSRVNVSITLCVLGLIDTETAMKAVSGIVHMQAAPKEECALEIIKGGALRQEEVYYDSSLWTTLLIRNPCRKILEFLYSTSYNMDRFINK
Sequence of 11-beta-hydroxysteroid dehydrogenase 1 (Mus musculus, UniProt P50172) (P50172 whole entry): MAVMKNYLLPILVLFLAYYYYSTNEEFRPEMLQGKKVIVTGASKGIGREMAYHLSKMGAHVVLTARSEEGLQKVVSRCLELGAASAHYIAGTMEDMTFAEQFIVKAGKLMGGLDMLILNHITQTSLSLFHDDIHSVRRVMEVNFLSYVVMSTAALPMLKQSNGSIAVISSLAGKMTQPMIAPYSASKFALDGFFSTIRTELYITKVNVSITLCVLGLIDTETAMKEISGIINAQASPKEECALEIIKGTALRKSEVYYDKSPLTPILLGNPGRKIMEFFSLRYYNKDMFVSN
Sequence of 11-beta-hydroxysteroid dehydrogenase 1 (Rattus norvegicus, UniProt P16232) (P16232 whole entry): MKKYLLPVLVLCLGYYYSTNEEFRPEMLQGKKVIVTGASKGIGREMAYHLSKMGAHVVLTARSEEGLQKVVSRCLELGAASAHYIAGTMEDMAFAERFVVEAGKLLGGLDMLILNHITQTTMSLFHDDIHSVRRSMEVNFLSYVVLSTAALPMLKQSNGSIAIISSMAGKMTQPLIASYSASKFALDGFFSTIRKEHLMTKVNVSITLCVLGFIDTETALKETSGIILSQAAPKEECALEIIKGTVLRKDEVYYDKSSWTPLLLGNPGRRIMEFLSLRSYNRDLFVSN

Row | IC50 [1] [µM] | IC50 [2] [µM] | IC50 [3] [µM] | Ki [4] [µM] | CLint scaled at 1 µM [5] [mL/min/kg] | Ki [6] [µM] | CLint scaled at 1 µM [7] [mL/min/kg] | Vd [8] [L/kg] | half-life [9] [h] | clearance [10] [mL/min/kg] | AUC (Mus musculus) [ug/hr.ml] | CLint scaled at 1 µM [11] [mL/min/kg] | Ki [12] [µM] | bioavailability [13] [%] | half-life [14] [h] | IC50 [15] [µM] | SMILES
1 | 0.45 | > 100 | > 100 | 0.11 | 233 | 0.026 | < 100 | – | – | – | – | – | – | – | – | – | O=C(CN1CCN(c2ccc(C(F)(F)F)cn2)CC1)N[C@H]1C2CC3CC1C[C@@](F)(C3)C2
2 | 0.021 | 62 | > 100 | 0.005 | 33.3 | 0.004 | 333 | 2.7 | 0.5 | 155 | 0.2 | 567 | 0.013 | 19 | 4.2 | > 100 | CC(C(=O)N[C@H]1C2CC3CC1C[C@](O)(C3)C2)N1CCc2ccc3c(c2CC1)OCO3 (stereo partly specified)
3 | – | – | – | 0.018 | 50 | – | 183 | – | – | – | – | – | – | – | – | – | CO[C@]12CC3CC(C1)[C@@H](NC(=O)C(C)N1CCN(c4ccc(C(F)(F)F)cn4)CC1)C(C3)C2 (mixture of isomers)
4 | 0.55 | > 20 | > 100 | 0.12 | 33.3 | 0.032 | 2270 | – | – | – | – | – | – | – | – | – | O=C(CN1CCN(c2ccc(C(F)(F)F)cn2)CC1)N[C@H]1C2CC3CC1C[C@](F)(C3)C2
5 | – | – | – | 0.033 | < 16.7 | – | 233 | – | – | – | – | – | – | – | – | – | CC(C(=O)N[C@H]1C2C[C@@]3(O)CC1C[C@@](F)(C2)C3)N1CCN(c2ccc(C(F)(F)F)cn2)CC1 (mixture of isomers)
6 | – | – | – | 0.47 | < 16.7 | – | 383 | – | – | – | – | – | – | – | – | – | CC(C)(C(=O)N[C@H]1C2C[C@@]3(O)CC1C[C@@](O)(C2)C3)N1CCN(c2ccc(C(F)(F)F)cn2)CC1
7 | > 15 | > 10 | > 100 | 0.3 | 183 | 0.067 | 1080 | – | – | – | – | – | – | – | – | – | O=C(CN1CCN(c2ccc(C(F)(F)F)cn2)CC1)N[C@H]1C2CC3CC1C[C@@](O)(C3)C2
8 | 0.45 | > 100 | > 100 | 0.024 | < 16.7 | 0.021 | < 100 | – | – | – | – | – | – | – | – | – | C[C@@H](C(=O)N[C@H]1C2CC3CC1C[C@](O)(C3)C2)N1CC[C@@H](F)C1
9 | – | – | – | 0.91 | 16.7 | – | 933 | – | – | – | – | – | – | – | – | – | CC(C(=O)N[C@H]1C2C[C@]3(O)CC1C[C@](F)(C2)C3)N1CCN(c2ccc(C(F)(F)F)cn2)CC1 (mixture of isomers)
10 | 0.26 | > 100 | > 100 | 0.053 | 1830 | 0.014 | 6330 | – | – | – | – | – | – | – | – | – | N#Cc1cccnc1N1CCN(CC(=O)NC2C3CC4CC(C3)CC2C4)CC1 (stereo unspecified)
11 | 0.036 | – | – | 0.26 | – | 0.007 | – | – | – | – | – | – | – | – | – | – | C[C@@H](C(=O)N[C@H]1C2CC3CC1C[C@](O)(C3)C2)N1CCN(c2ccc(C(F)(F)F)cn2)CC1 (stereo in doubt; (S)-22f)
12 | 0.035 | > 100 | > 100 | 0.002 | < 16.7 | 0.003 | 1000 | – | – | – | – | 467 | 0.003 | – | – | > 100 | O=C(CN1CC[C@H](C(F)(F)F)C1)N[C@H]1C2CC3CC1C[C@](O)(C3)C2
